From patent US8790724B2, “Formulation of dual cycloxygenase (COX) and lipoxygenase (LOX) inhibitors for mammal skin care” (Unigen, Inc., priority 2003, dated 2014)
Where two headings read alike, the source gives them in different places. One block for each compound: values may come before it.

Legend:
recombinant ovine COX-2 = molecular target: T1, recombinant ovine COX-2 (Ovis aries, UniProt P79208); assay: Inhibition of COX-2 peroxidase activity, TMPD assay (Example 3); type: biochemical; details: IC50 normalized to the number of enzyme units
T1 construct: purchased Cayman
T1 sequence (P79208 17-603): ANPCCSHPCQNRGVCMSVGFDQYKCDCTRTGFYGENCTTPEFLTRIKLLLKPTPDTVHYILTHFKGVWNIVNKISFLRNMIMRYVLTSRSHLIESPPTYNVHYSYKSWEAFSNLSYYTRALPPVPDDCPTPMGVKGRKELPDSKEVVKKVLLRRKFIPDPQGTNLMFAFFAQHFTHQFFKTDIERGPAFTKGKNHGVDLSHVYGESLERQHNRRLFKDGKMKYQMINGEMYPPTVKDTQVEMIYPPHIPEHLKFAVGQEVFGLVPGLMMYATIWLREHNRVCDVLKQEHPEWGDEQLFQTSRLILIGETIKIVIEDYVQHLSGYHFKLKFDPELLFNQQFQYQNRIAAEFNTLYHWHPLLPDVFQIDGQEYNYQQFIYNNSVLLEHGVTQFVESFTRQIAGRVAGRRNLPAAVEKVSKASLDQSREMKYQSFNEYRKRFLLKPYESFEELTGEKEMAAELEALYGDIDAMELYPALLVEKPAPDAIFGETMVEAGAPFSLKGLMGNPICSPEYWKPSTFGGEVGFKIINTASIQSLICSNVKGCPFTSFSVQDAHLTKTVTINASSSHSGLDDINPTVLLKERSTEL
Text: (§1) In order to screen for compounds that inhibited the COX-1 and COX-2 activities, a high throughput, in vitro assay was developed that utilized the inhibition of the peroxidase activity of both enzymes. […] Briefly, the composition or compound being examined was titrated against a fixed amount of COX-1 and COX-2 enzymes. A cleavable, peroxide chromophore was included in the assay to visualize the peroxidase activity of each enzyme in presence of arachidonic acid as a cofactor. Typically, assays were performed in a 96-well format. Each inhibitor, taken from a 10 mg/mL stock solution in 100% DMSO, was tested in triplicate at room temperature using the following range of concentrations: 0, 0.1, 1, 5, 10, 20, 50, 100, and 500 μg/mL. […] The components were mixed for 10 seconds on a rotating platform, followed by the addition of 20 μL of 2 mM N,N,N′N′-tetramethyl-p-phenylenediamine dihydrochloride (TMPD) and 20 μL of 1.1 mM arachidonic acid to initiate the reaction. The plate was shaken for 10 seconds and then incubated 5 minutes before reading the absorbance at 570 nm. The inhibitor concentration vs. % inhibition was plotted and the IC50 determined by taking the half-maximal point along the isotherm and intersecting the concentration on the X-axis. The IC50 was then normalized to the number of enzyme units in the assay.

recombinant ovine COX-1 = molecular target: T2, recombinant ovine COX-1 (Ovis aries, UniProt P05979); assay: Inhibition of COX-1 peroxidase activity, TMPD assay (Example 3); type: biochemical
T2 sequence (P05979 25-600): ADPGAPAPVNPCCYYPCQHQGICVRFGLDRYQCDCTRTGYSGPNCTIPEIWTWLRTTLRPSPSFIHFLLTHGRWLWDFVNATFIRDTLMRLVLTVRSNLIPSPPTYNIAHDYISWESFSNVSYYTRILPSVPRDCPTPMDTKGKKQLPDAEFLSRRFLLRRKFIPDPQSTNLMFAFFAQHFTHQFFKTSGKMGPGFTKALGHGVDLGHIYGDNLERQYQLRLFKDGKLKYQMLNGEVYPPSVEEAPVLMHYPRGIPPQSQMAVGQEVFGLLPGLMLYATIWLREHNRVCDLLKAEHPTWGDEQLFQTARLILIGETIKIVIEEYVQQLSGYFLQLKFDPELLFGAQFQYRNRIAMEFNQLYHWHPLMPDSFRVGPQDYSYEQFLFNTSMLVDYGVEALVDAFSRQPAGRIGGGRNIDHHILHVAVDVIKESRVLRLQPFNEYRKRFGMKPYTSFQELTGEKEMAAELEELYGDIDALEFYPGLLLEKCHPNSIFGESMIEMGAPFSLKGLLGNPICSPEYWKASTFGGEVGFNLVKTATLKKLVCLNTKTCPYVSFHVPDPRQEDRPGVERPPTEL
Text: as §1

[1] = system: cox-2 gene transcription in human colon cancer DLD-1 cells; details: Mutoh et al. (2000), read-out: IC50 suppression of cox-2 gene transcription; cited from earlier work
[2] = system: prostaglandin endoperoxide synthase; details: Kalkbrenner et al. (1992); cited from earlier work
COX-1 = details: cited from earlier work
[3] = system: carrageenin-induced mouse paw edema; details: oral administration, 100 mg/kg; Min et al. (1999); cited from earlier work
[4] = system: LTB4 (5-LOX pathway) in HT-29 cells; assay: Competitive ELISA for LTB4 in HT-29 cells; type: cell-based; details: Homo sapiens, 3 μg/mL, 48 hrs, read-out: inhibition of LTB4 production in HT-29 cells
Description: A Soliprin™ formulation (80:20) was prepared as described in Example 9. (See also Example 14 of U.S. patent application Ser. […] The sample was titrated in tissue culture media containing THP-1 or HT-29 cells; monocyte cell lines that express COX-1, COX-2 and 5-LOX. A competitive ELISA for Leukotriene B4 (LTB4; Neogen, Inc., Cat #406110) was used to assess the effect of this Soliprin™ formulation on newly synthesized levels of LTB4 present in each cell line as a measure Soliprin™'s inhibitory effect on the 5-LOX pathway. The assay was performed in duplicate by adding 160,000 to 180,000 cells per well in 6-well plates. […] Each treated cell line was then harvested by centrifugation and disrupted by gentle dounce homogenization lysis in physiological buffers.

- IC50 for COX-2 (recombinant ovine COX-2): 0.28 μg/mL/unit
- IC50 for COX-1 (recombinant ovine COX-1; peroxidase activity, IC50 normalized to the number of enzyme units): 0.44 μg/mL/unit of enzyme
SMILES: O=C(O)[C@H]1O[C@@H](Oc2cc3oc(-c4ccccc4)cc(=O)c3c(O)c2O)[C@H](O)[C@@H](O)[C@@H]1O [Baicalin]

SMILES: Oc1cc(O)c2c(c1)OC(c1ccc(O)c(O)c1)C(O)C2 (stereo not drawn) [Catechin]
- IC50 [1]: 415 µM
- IC50 [2]: 40 µM
- IC50 (COX-1; isolated from the bark of Ceiba pentandra, Noreen et al. (1998) J. Nat. Prod. 61:8-12): 80 µM

SMILES: Oc1ccc([C@H]2Oc3cc(O)cc(O)c3C[C@H]2O)cc1 [Epiafzelechin]
- IC50 (COX-1; isolated from Celastrus orbiculatus, Min et al. (1999)): 15 µM
- anti-inflammatory activity against carrageenin-induced mouse paw edema [3]: demonstrated anti-inflammatory activity

SMILES: CC(C)Cc1ccc(C(C)C(=O)O)cc1 (stereo not drawn) [Ibuprofen, ibuprofen]
- inhibition at 3 µg/mL [4]: 20%

- Inhibition of COX-1 (recombinant ovine COX-1; purified Free-B-Ring flavonoids, concentration not given): 16%
SMILES: COc1c(O)cc(O)c2c(=O)cc(-c3ccccc3)oc12 [Wogonin]
